The record followed here is patent US7915293B2, “Ubiquitin ligase inhibitors” (Rigel Pharmaceuticals, Inc., priority 2003, dated 2011).

Common to all, as to parameters: key: “+” indicates that the compound exibits inhibitory activity; “−” indicates that low or no inhibitory activity was observed
The target of test [1] is E3 (His-APC11/APC2-"APC") (Homo sapiens, UniProt Q9NYG5+Q9UJX6). The test is described as follows: Plate-based E3 ligase assay (APC FLAG), auto-ubiquitination. The conditions noted are these: 8 concentrations tested. In kind it is biochemical. The method, boiled down:
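His-APC11/APC2 auto-ubiquitination was run in casein-blocked nickel plates for 1 h at room temperature, with E1 at 5 ng/well, UbcH5c at 20 ng/well and APC at 100 ng/well. Buffer was 62.5 mM Tris pH 7.6, 3 mM MgCl2, 1 mM DTT, 2.5 mM ATP and Flag-ubiquitin at 100 ng/well. Detection used anti-Flag/HRP chemiluminescence, and IC50 was typically from 6 or 8 concentrations versus a DMSO control.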

For test [2], the system named is A549 cells. The test is described as follows: Cell proliferation assay, photographic image analysis of proliferation, apoptosis and death (PAD assay), A549. Type of test: cell-based. The conditions noted are these: 6 concentrations tested. The method, boiled down: (§1)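 Cells grown in RPMI with 5% FBS (2,000/well) and dosed 24 h after plating with 6.3-fold dilutions in duplicate (master plate 500× final, top 10 mM stock). After 48 h at 37 °C, cells formamide-fixed and DAPI-stained. Image analysis counted live, apoptotic and dead cells.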

The subject of test [3] is HeLa cells. The test is described as follows: Non-photographic proliferation analysis (Promega Cell titer Aqueous), HeLa. Type of test: cell-based. The conditions noted are these: 6 concentrations tested. Put shortly: (§2)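 HeLa, A549 and HCT116 cells, 2,000 per well in RPMI with 5% FBS, were given compounds 24 h after plating as 6.3-fold duplicate dilutions from 10 mM stock, diluted 500-fold into the wells. After 48 h at 37° C, 5% CO2, Cell titer Aqueous reagent was added for 45 min and absorbance read at 490 nm.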

A further test deals with E3 MDM2 (Homo sapiens, UniProt Q00987). The test is described as follows: Plate-based autoubiquitination of the E3 MDM2 (MDM2-FLAG). Type of test: biochemical. The following applies: 8 concentrations tested. How it is done:
E3 (His-APC11/APC2-“APC”) auto-ubiquitination was measured as described in U.S. patent application Ser. No. 09/826,312 (Publication No. US-2002-0042083-A1), which is incorporated herein in its entirety. Details of the protocol are described below. Activity in the presence of the compound was determined relative to a parallel control in which only DMSO was added. Values of the IC50 were typically determined using 6 or 8 different concentrations of the compound, although as few as 2 concentrations may be used to approximate the IC50 value.
Nickel-coated 96-well plates (Pierce 15242) were blocked for 1 hour with 100 μl of blocking buffer at room temperature. The plates were washed 4 times with 225 μl of 1×PBS and 80 μl of the reaction buffer were added that contained 100 ng/well of Flag-ubiquitin. To this, 10 μl of the test compound diluted in DMSO were added. After the test compound was added, 10 μl of E1 (human), E2 (Ubch5c), and APC in Protein Buffer was added to obtain a final concentration of 5 ng/well of E1, 20 ng/well of E2 and 100 ng/well of APC. The plate were shaken for 10 minutes and incubated at room temperature for 1 hour. After incubation, the plates were washed 4 times with 225 μl of 1×PBS and 100 μl/well of Antibody Mix were added to each well. The plates were incubate at room temperature for another hour after which they were washed 4 times with 225 μl of 1×PBS and 100 μl/well of Lumino substrate were added to each well. The luminescence was measured by using a BMG luminescence microplate reader.
To prepare the Blocking Buffer (1 liter; 1% Casein in 1×PBS), 10 grams of Casein (Hammersten Grade Casein from Gallard-Schlesinger Inc. #440203) were placed into 1 liter of 1×PBS, stirred on a hot plate and kept between 50-60° C. for an hour. The buffer was allowed to cool to room temperature and then filtered using a Buchner Funnel (Buchner filter funnel 83 mm 30310-109) and Whatman filter paper (Whatman Grade No. 1 Filter paper 28450-070). It was stored at 4° C. until used.
The reaction buffer consisted of 62.5 mM Tris pH 7.6 (Trizma Base—Sigma T-8524), 3 mM MgCl2 (Magnesium Chloride—Sigma M-2393), 1 mM DTT (Sigma D-9779), 2.5 mM ATP (Roche Boehringer Mann Corp. 635-316), 100 ng/well of Flag-ubiquitin, 0.1% BSA (Sigma A-7906), and 0.05% Tween-20 (Sigma P-7949).
The Protein Buffer consisted of 20 mM Tris pH 7.6, 10% glycerol (Sigma G-5516) and 1 mM DTT.
The antibody mix consisted of 0.25% BSA (Sigma A-7906) in 1×PBS, 1/50,000 anti-Flag (Sigma F-3165), 1/100,000 of anti-Mouse IgG-HRP (Jackson Immunoresearch #115-035-146).
The substrate mix consisted of SuperSignal Substrate from Pierce (catalog number 37070ZZ) and was prepared by mixing 100 ml of the peroxide solution, 100 ml of the enhancer solution and 100 ml of Milli-Q® water.
In similar manner, autoubiquitination of the E3 MDM2 was determined (MDM2-FLAG). Further instruction in such assays can be found in U.S. patent application Ser. No. 10/108,767 (Publication No. US-2003-0104474 A1), which is incorporated herein in its entirety.

In test [4] the test system is HCT116 cells. Nature of the test: Cell proliferation assay, photographic image analysis of proliferation, apoptosis and death (PAD assay), HCT116. In kind it is cell-based. The following applies: 6 concentrations tested. The method, boiled down:
as §1

Test [5] has as its system HeLa cells. Nature of the test: Cell proliferation assay, photographic image analysis of proliferation, apoptosis and death (PAD assay), HeLa. In kind it is cell-based. The conditions noted are these: 6 concentrations tested. Put shortly:
as §1

The subject of test [6] is A549 cells. The test is described as follows: Non-photographic proliferation analysis (Promega Cell titer Aqueous), A549. The conditions noted are these: 6 concentrations tested. Type of test: cell-based. The method, boiled down: as §2
In a further test the target is MDM2 / p53 substrate (Homo sapiens, UniProt Q00987). The test is described as follows: Plate-based MDM2 substrate ligation assay (MDM2-P53-FLAG). In kind it is biochemical. The conditions noted are these: 8 concentrations tested. The source says: This assay was preformed essentially as described in WO 03/076899 (page 77, line 5 to page 80, line 13), hereby incorporated by reference in its entirety.
Sequence of MDM2 / p53 substrate (Q00987 whole entry): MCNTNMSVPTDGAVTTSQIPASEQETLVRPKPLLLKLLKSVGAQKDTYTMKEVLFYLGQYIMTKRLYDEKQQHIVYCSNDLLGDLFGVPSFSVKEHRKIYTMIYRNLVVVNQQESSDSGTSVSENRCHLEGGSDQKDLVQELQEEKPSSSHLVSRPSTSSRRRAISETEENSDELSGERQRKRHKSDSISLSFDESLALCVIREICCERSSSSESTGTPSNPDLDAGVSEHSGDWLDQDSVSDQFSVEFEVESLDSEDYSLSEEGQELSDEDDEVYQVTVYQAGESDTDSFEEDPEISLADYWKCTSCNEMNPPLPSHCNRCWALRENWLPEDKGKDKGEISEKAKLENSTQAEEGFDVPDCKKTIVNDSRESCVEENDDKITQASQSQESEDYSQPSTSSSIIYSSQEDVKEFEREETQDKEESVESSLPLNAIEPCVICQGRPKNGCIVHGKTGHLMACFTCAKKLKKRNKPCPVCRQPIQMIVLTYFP

Test [7] deals with HCT116 cells. Nature of the test: Non-photographic proliferation analysis (Promega Cell titer Aqueous), HCT116. Type of test: cell-based. The following applies: 6 concentrations tested. The method, then: A549 (ATCC# CCL-185), HeLa (ATCC# CCL-2), HCT116 (ATCC# CCL-247), and H1299 (ATCC# CRL-5803) cells were maintained in T175 flasks following the ATCC recommended media and handling procedures. Flasks reaching approximately 70% confluency were trypsinized and resuspended in RPMI media (Cell-Gro catalog number 10-040-CM) modified to contain 5% FBS, 100 ug/mlPen/Strep (Cell-Gro catalog number 30-002-CL), and 0.3 mg/ml L-Glutamine (Cell-Gro catalog number 25-003-CL). A 20,000 cells/ml solution was made for plating. Cells were plated in black Packard 96 well plates by placing 100 μl per well (2,000 cells per well).
Compounds and additional media were added 24 hours after cell plating. A compound master plate was created with concentrations 500 times greater than the final concentration added to the cells. All compound testing was done in duplicate using 6.3 fold dilutions starting with 10 mM. All outside wells (and 4 internal wells) were DMSO controls. Taxol and at least one additional control were run on all plates. Three microliters of the compound master plate were added to deep well blocks containing 750 μl of RPMI media. One hundred microliters were transferred from the compound/media deep well blocks to the plated cells resulting in a 500 fold dilution of the compounds. Cells were grown at 37° C., 5% CO2 for 48 hours.
Some cell plates were treated with Promega Cell titer Aqueous 1 kit (promega—VWR catalog number G3580). In this case, 48 hours after the test compound were added, 100 μl of media were removed and 20 μl of cell titer reagent were added to all wells. Plates were incubated at 37° C. for 45 minutes prior to absorbance reads on the Wallac plate reader at 490 nm for 0.1 sec/well.

Sequence of E3 MDM2 (Q00987 whole entry): as above
Sequence of E3 (His-APC11/APC2-"APC") (Q9NYG5 whole entry): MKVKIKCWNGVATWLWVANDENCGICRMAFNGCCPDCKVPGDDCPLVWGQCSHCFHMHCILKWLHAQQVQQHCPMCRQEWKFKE
Sequence of E3 (His-APC11/APC2-"APC") (Q9UJX6 whole entry): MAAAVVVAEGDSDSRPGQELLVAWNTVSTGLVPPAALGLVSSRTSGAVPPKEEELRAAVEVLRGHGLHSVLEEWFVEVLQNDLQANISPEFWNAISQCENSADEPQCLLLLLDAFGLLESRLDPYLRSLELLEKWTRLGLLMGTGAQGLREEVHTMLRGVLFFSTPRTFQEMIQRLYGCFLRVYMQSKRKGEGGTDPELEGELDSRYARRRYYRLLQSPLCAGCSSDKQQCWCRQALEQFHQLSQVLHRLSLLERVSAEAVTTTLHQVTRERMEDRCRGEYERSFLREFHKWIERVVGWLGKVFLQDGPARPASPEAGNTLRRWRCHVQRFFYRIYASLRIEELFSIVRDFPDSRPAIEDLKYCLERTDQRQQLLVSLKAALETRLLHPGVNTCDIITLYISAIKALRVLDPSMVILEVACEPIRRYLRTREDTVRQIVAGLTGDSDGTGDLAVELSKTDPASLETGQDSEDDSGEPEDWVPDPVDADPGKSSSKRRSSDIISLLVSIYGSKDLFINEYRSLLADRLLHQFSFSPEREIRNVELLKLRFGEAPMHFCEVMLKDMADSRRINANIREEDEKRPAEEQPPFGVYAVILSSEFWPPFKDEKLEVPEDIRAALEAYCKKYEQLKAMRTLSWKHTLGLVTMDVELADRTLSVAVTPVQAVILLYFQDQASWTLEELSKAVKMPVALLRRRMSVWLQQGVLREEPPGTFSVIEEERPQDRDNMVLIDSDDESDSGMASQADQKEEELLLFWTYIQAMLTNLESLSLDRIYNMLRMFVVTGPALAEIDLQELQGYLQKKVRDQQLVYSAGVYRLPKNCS

In the case of `O=[N+]([O-])c1ccc(Oc2c(Cl)cc(S(=O)(=O)Nc3cc(Cl)ccc3Cl)cc2Cl)c(Cl)c1` [Compound 203, 3,5-dichloro-4-(2-chloro-4-nitrophenoxy)-N-(2,5-dichlorophenyl)benzene sulfonamide], the “APC Flag 8 pt” value in test [1] was “+”. The “PAD Assay, A549 6 pt” value in the test on A549 cells [2] is listed as “+”. Moreover, in the test on HeLa cells [3], the “Cell Titer-Aqueous, HELA 6 pt” value is “+”. Moreover, the “MDM2-Auto Flag 8 pt” value at E3 MDM2 is listed as “+”. In addition, the “PAD Assay, HCT116 6 pt” value with HCT116 cells [4] is reported as “+”. For the same molecule, in the test with HeLa cells [5], the “PAD Assay, HELA 6 pt” value is given as “+”. Further, the “Cell Titer-Aqueous, A549 6 pt” value in the test with A549 cells [6] is given as “+”. Besides, the “MDM2-P53 Flag 8 pt” value at MDM2 / p53 substrate is reported as “+”.
For `O=[N+]([O-])c1ccc(Oc2c(Cl)cc(S(=O)(=O)Nc3ccc(Cl)cc3[N+](=O)[O-])cc2Cl)c(Cl)c1` [Compound 215, 3,5-dichloro-4-(2-chloro-4-nitrophenoxy)-N-(4-chloro-2-nitrophenyl)benzene sulfonamide], the “APC Flag 8 pt” value in [1] is given as “+”. In addition, the “PAD Assay, A549 6 pt” value with A549 cells [2] is given as “+”. Also, the “Cell Titer-Aqueous, HELA 6 pt” value in the test with HeLa cells [3] is recorded as “+”. The “MDM2-Auto Flag 8 pt” value at E3 MDM2 is “+”. Moreover, the “PAD Assay, HCT116 6 pt” value in the test on HCT116 cells [4] is listed as “+”. Also, the “PAD Assay, HELA 6 pt” value with HeLa cells [5] is “+”. In addition, the “Cell Titer-Aqueous, A549 6 pt” value in the test with A549 cells [6] is recorded as “+”. In addition, the “MDM2-P53 Flag 8 pt” value on MDM2 / p53 substrate was “+”.
`O=[N+]([O-])c1ccc(Oc2c(Cl)cc(S(=O)(=O)Nc3cc([N+](=O)[O-])ccc3F)cc2Cl)c(Cl)c1` [Compound 220, 3,5-dichloro-4-(2-chloro-4-nitrophenoxy)-N-(2-fluoro-5-nitrophenyl)benzene sulfonamide]: in test [1], the “APC Flag 8 pt” value is recorded as “+”. In the test on A549 cells [2], the “PAD Assay, A549 6 pt” value is “+”. Besides, in the test with HeLa cells [3], the “Cell Titer-Aqueous, HELA 6 pt” value is reported as “+”. The “MDM2-Auto Flag 8 pt” value at E3 MDM2 is “+”. Further, the “PAD Assay, HCT116 6 pt” value in the test with HCT116 cells [4] was “+”. Besides, the “PAD Assay, HELA 6 pt” value in the test on HeLa cells [5] was “+”. For the same molecule, in the test with A549 cells [6], the “Cell Titer-Aqueous, A549 6 pt” value was “+”. On MDM2 / p53 substrate, the “MDM2-P53 Flag 8 pt” value was “−”.
`O=[N+]([O-])c1ccc(Oc2c(Cl)cc(S(=O)(=O)/N=C(\NO)Nc3ccc(Cl)cc3)cc2Cl)c(Cl)c1` [Example 58, 3,5-dichloro-4-(2-chloro-4-nitrophenoxy)-N-[(1Z)-[(4-chlorophenyl)amino](hydroxy-amino)methylene]benzenesulfonamide]: the “Cell Titer-Aqueous, HCT116 6 pt” value in the test with HCT116 cells [7] is listed as “+”. In test [1], the “APC Flag 8 pt” value is reported as “+”. Besides, in the test with A549 cells [2], the “PAD Assay, A549 6 pt” value is on record as “+”. For the same molecule, the “Cell Titer-Aqueous, HELA 6 pt” value in the test on HeLa cells [3] was “+”. Also, the “MDM2-Auto Flag 8 pt” value on E3 MDM2 was “+”. For the same molecule, the “PAD Assay, HELA 6 pt” value in the test with HeLa cells [5] was “+”. Moreover, in the test with A549 cells [6], the “Cell Titer-Aqueous, A549 6 pt” value was “+”. In addition, the “MDM2-P53 Flag 8 pt” value on MDM2 / p53 substrate is listed as “+”.
Regarding `O=[N+]([O-])c1ccc(Oc2c(Cl)cc(S(=O)(=O)Nc3cc(Br)cc(Br)n3)cc2Cl)c(Cl)c1` [Compound 218], in [1], the “APC Flag 8 pt” value is given as “+”. The “PAD Assay, A549 6 pt” value with A549 cells [2] is on record as “−”. The “Cell Titer-Aqueous, HELA 6 pt” value in the test with HeLa cells [3] was “+”. The “MDM2-Auto Flag 8 pt” value on E3 MDM2 is “+”. Moreover, the “PAD Assay, HCT116 6 pt” value in the test on HCT116 cells [4] is “−”. In the test on HeLa cells [5], the “PAD Assay, HELA 6 pt” value is “+”. Besides, the “Cell Titer-Aqueous, A549 6 pt” value with A549 cells [6] is recorded as “+”. Also, the “MDM2-P53 Flag 8 pt” value at MDM2 / p53 substrate was “+”.
